Measured values from ChEMBL document CHEMBL5126500, “Small-molecule inhibitors of breast cancer-related targets: Potential therapeutic agents for breast cancer” (Eur J Med Chem, 2021).
One block for each compound: values may come before it.

What was measured:
[1] = molecular target: T1, Bromodomain-containing protein 4 (Homo sapiens, UniProt O60885); assay: Inhibition of BRD4 BD1 (unknown origin)
[2] = molecular target: T1, Bromodomain-containing protein 4; assay: Inhibition of BRD4 BD2 (unknown origin)
[3] = molecular target: T2, Histone deacetylase 8 (Homo sapiens, UniProt Q9BY41); assay: Inhibition of human recombinant HDAC8 using BML-KI178-0005 as substrate incubated for 10 mins by fluorescence based assay
T2 sequence (Q9BY41 whole entry): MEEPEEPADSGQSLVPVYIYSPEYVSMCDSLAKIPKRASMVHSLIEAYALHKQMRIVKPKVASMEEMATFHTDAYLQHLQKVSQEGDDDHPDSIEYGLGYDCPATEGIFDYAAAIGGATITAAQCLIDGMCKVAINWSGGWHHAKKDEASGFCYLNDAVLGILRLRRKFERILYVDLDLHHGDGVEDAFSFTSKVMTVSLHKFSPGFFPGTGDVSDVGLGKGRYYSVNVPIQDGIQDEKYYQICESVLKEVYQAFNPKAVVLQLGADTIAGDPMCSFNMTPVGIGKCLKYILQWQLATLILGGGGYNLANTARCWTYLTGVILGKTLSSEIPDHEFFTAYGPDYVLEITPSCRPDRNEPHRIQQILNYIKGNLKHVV

[4] = molecular target: CDK6/cyclin D3 (Homo sapiens, UniProt Q00534); assay: Binding affinity to CDK6/Cyclin D3 (unknown origin) assessed as inhibition constant by radiometric assay; type: protein-complex assay
CDK6/cyclin D3, sequence (P30281 whole entry): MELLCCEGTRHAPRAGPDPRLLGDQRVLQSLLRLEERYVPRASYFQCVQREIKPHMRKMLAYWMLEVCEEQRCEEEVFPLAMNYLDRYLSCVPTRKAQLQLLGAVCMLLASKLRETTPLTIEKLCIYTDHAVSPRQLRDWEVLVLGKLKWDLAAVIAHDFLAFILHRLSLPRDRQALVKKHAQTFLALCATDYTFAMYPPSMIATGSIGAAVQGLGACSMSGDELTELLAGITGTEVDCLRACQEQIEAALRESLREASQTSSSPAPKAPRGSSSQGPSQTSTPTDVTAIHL
CDK6/cyclin D3, sequence (Q00534 whole entry): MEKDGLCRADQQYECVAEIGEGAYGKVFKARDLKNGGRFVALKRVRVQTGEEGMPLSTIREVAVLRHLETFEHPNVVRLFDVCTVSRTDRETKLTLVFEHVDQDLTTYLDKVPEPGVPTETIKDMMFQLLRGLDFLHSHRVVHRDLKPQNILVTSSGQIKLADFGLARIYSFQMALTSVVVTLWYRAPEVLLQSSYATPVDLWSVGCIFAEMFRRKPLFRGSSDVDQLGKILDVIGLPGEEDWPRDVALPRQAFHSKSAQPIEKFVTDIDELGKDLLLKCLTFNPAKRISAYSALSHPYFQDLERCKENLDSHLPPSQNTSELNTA

[5] = molecular target: T3, Poly [ADP-ribose] polymerase 1 (Homo sapiens, UniProt P09874); assay: Inhibition of PARP1 (unknown origin) incubated for 1 hr by colorimetry
T3 sequence (P09874 whole entry): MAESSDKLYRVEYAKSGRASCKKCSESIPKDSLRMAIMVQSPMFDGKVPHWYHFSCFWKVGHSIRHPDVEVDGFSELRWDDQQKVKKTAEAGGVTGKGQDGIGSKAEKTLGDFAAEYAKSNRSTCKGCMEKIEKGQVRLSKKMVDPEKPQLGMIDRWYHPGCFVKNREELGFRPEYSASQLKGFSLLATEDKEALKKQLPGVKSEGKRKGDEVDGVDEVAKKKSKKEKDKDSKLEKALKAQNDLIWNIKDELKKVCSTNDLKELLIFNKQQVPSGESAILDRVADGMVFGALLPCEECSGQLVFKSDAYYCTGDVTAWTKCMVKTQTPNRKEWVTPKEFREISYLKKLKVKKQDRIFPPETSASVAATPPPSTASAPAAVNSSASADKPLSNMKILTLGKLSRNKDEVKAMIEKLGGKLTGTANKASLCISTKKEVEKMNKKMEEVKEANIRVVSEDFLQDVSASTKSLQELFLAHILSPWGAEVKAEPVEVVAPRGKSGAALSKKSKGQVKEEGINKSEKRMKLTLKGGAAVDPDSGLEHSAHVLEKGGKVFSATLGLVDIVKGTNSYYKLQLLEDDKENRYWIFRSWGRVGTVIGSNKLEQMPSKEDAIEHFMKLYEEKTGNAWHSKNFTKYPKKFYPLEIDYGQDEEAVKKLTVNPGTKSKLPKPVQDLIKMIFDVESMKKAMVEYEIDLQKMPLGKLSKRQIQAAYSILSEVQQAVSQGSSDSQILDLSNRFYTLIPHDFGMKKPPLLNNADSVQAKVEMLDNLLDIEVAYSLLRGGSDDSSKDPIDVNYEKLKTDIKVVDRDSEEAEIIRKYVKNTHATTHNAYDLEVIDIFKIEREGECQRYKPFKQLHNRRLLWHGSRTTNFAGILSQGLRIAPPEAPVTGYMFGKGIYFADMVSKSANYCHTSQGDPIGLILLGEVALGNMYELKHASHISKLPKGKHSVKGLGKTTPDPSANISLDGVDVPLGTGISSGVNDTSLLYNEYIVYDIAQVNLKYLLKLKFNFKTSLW

[6] = molecular target: T3, Poly [ADP-ribose] polymerase 1; assay: Inhibition of PARP1 (unknown origin) using NAD+ as substrate incubated for 30 mins by fluorescence based assay
[7] = test system: MDA-MB-436; assay: Antiproliferative activity against BRCA1 deficient human MDA-MB-436 cells assessed as reduction in cell viability incubated for 96 hrs by MTT assay; type: functional, cell-based; conditions: MDA-MB-436, 96 h
[8] = molecular target: Serine/threonine-protein kinase PLK1 (Homo sapiens, UniProt P53350); assay: Inhibition of PLK1-PBD (unknown origin) using FITC-GPMQSpTPLNG-OH as substrate incubated for 30 mins by fluorescence polarization assay
Serine/threonine-protein kinase PLK1, sequence (P53350 whole entry): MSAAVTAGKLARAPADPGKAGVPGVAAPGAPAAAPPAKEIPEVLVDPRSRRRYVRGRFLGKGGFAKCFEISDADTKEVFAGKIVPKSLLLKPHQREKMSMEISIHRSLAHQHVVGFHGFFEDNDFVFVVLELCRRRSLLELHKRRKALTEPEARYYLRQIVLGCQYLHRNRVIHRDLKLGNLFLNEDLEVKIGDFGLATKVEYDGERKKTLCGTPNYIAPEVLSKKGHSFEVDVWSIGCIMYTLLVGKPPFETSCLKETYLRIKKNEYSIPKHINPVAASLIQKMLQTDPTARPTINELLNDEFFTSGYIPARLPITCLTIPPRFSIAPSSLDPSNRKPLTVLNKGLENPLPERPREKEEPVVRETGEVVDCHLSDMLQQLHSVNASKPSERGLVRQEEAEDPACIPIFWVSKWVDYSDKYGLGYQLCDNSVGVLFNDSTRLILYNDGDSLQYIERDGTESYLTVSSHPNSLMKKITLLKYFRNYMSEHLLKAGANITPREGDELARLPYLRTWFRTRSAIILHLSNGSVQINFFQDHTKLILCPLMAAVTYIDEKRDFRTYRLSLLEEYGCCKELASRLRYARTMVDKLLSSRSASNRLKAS

[9] = test system: MX1; assay: Cytotoxicity against human MX1 cells assessed as cell survival incubated for 72 hrs by MTT assay; type: functional, cell-based; conditions: MX1, 72 h

Ki [4]: 0.0134 µM
SMILES: CC(=O)N1N=C(c2c(O)c3ccccc3oc2=O)CC1c1ccccc1Cl (centres undefined)

IC50 [5]: 0.036 µM
SMILES: O=C(c1ccc(Cc2n[nH]c(=O)c3cccnc23)cc1)n1cccc1

IC50 [6]: 0.025 µM
IC50 [7]: 1 µM
SMILES: CC(c1nc2c(C(N)=O)cccc2[nH]1)N1CC(=O)N(c2ccc(C(F)(F)F)cc2)C1=S (centres undefined)

Continued, compound first:

SMILES: C#CCSc1nc2nc(C)cc(Nc3cc(-c4ccccc4)[nH]n3)n2n1
IC50 [1]: 2.15 µM
IC50 [2]: 4.36 µM

SMILES: O=C(CCN1CCN(C(=O)Nc2ccnc3ccccc23)CC1)NO
IC50 [3]: 1.74 µM

SMILES: O=C(CCNC(=O)c1ccc(CO)cc1)N[C@@H](Cc1cnnn1CCc1ccccc1)C(=O)NCc1cn(CCP(=O)(O)O)nn1
IC50 [8]: 3.37 µM

SMILES: CC(C)N1CCC(NC(=O)c2cc(Cn3c(=O)[nH]c(=O)c4ccccc43)ccc2F)C1 (centres undefined)
IC50 [9]: < 3.12 µM
